Key:
Type in all cases: in vivo
[1] = test system: Spodoptera litura; test: Insecticidal effect for Spodoptera litura by spraying treatment to host crop (Test Example 2); settings: 100 ppm, sprayed on soybean, third-instar larvae of Spodoptera litura, fifth day after; for pest or weed control at 100 ppm: 120 h, read-out: rate of dead pests (%)
Description: Insecticidal Effect for Spodoptera litura by Spraying Treatment to Host Crop
A pesticidal solution, which was prepared by dissolving 5 mg of test compound (represented by the compound Nos. in the above Examples) in 0.5-ml of acetone containing Tween 20 (trade name) and then diluting it to the prescribed concentration (100 ppm) with Dain (trade name, sticker) water diluted 5000-fold, was sprayed on a soybean whose primary leaves had developed completely with spray gun in the amounts wherein the pesticidal solution dripped. After drying the pesticidal solution, two primary leaves were cut off. The leaves were put into an ice cream cup (180 ml), and ten third-instar larvae of Spodoptera litura were set free therein. The cup was left in a temperature-controlled breeding room (25° C.). On the fifth day after, the number of surviving Spodoptera litura was examined. The rate of dead pests was calculated by the following formula. rate of dead pests (%)=(number of dead pests/number of test pests)×100

[2] = test system: Spodoptera litura; test: Insecticidal effect for Spodoptera litura by immersion treatment of host crop root (Test Example 4); settings: 25 ppm, soybean root immersion 5 days, second-instar larvae of Spodoptera litura, fifth day after; for pest or weed control at 25 ppm: 120 h, read-out: rate of dead pests (%)
Description: Insecticidal Effect for Spodoptera litura by Immersion Treatment of Host Crop Root Roots of primary leaves developing stage soybean was washed with tap water to remove soil, and then immersed in a pesticidal solution which was prepared by dissolving 5 mg of test compound (represented by the compound Nos. in the above Examples) in 0.5 ml of acetone containing Tween 20 ([…]) with ion-exchange water, and which was filled in a light-shielded Erlenmeyer flask (100 ml). On the fifth day after immersion of root, two primary leaves were cut off, and the leaves were put into an ice cream cup (180 ml). Ten second-instar larvae of Spodoptera litura were set free therein, and the cup was left in a temperature-controlled breeding room (25° C.). On the fifth day after, the number of surviving Spodoptera litura was examined. The rate of dead pests was calculated by the following formula. rate of dead pests (%)=(number of dead pests/number of test pests)×100

[3] = test system: Plutella xylostella; test: Insecticidal effect for Plutella xylostella by immersion treatment of host crop (Test Example 1); settings: cabbage leaf dipped, second-instar larvae of Plutella xylostella, fifth day after; for rate of dead pests (%): 100 ppm; for pest or weed control at 100 ppm: foliar, 120 h, read-out: rate of dead pests (%)
Description: Insecticidal Effect for Plutella xylostella by Immersion Treatment of Host Crop One true leaf of 7 to 8-leave stage cabbage was cut off and dipped in a pesticidal solution for a few seconds, which was prepared by dissolving 5 mg of test compound (represented by the compound Nos. in the above Examples) in 0.5 ml of acetone containing Tween 20 (trade name) and then diluting it to the prescribed concentration (100 ppm) with Dain (trade name, sticker) water diluted 5000-fold. After drying the pesticidal solution, the leaf was put into an ice cream cup (180 ml), and ten second-instar larvae of Plutella xylostella were set free therein. The cup was left in a temperature-controlled breeding room (24° C.). On the fifth day after, the number of surviving Plutella xylostella was examined. The rate of dead pests was calculated by the following formula. rate of dead pests (%)=(number of dead pests/number of test pests)×100

[4] = test system: Plutella xylostella; test: Insecticidal effect for Plutella xylostella by immersion treatment of host crop root (Test Example 3); settings: Plutella xylostella, in Brassica oleracea, 120 h, read-out: rate of dead pests (%)
Description: Insecticidal Effect for Plutella xylostella by Immersion Treatment of Host Crop Root
Roots of 4-leave stage cabbage was washed with tap water to remove soil, and then immersed in a pesticidal solution which was prepared by dissolving 5 mg of test compound (represented by the compound Nos. in the above Examples) in 0.5 ml of acetone containing Tween 20 (trade name) and then diluting it to the prescribed concentration (25 ppm) with ion-exchange water, and which was filled in a light-shielded Erlenmeyer flask (100 ml). On the fifth day after immersion of root, the root was cut off, and the stem and leaves were put into an ice cream cup (180 ml). Ten second-instar larvae of Plutella xylostella were set free therein, and the cup was left in a temperature-controlled breeding room (24° C.). On the fifth day after, the number of surviving Plutella xylostella was examined. The rate of dead pests was calculated by the following formula. rate of dead pests (%)=(number of dead pests/number of test pests)×100

## O=C(c1c(F)cccc1F)N1COCN(c2ccc([S+]([O-])C(F)(F)C(F)F)cc2Cl)C1=O (centres unmarked) [I-17]
[1]
  rate of dead pests (%): 100%
[2]
  rate of dead pests (%): 100%
[3]
  rate of dead pests (%): 100%

## O=C(c1c(F)cccc1F)N1COCN(c2ccc(SC(F)(F)C(F)F)cc2F)C1=O [I-22]
[1]
  rate of dead pests (%): 100%
[3]
  rate of dead pests (%): 100%

## O=C(c1c(F)cccc1F)N1COCN(c2ccc(S(=O)(=O)C(F)F)cc2F)C1=O [I-43, 3-(2,6-difluorobenzoyl)-5-[4-(difluoromethylsulfonyl)-2-fluorophenyl]tetrahydro-4H-1,3,5-oxadiazin-4-one]
[1]
  pest or weed control at 100 ppm: 100%
[2]
  pest or weed control at 25 ppm: 100%
[3]
  pest or weed control at 100 ppm: 100%

## O=C(c1c(F)cccc1F)N1COCN(c2ccc([S+]([O-])C(F)(F)F)c(F)c2F)C1=O (centres unmarked) [I-108]
[3]
  rate of dead pests (%): 100%

## O=C(c1c(F)cccc1F)N1COCN(c2c(F)cc(SC(F)(F)F)c(F)c2F)C1=O [I-116]
[1]
  rate of dead pests (%): 100%
[3]
  rate of dead pests (%): 100%

## O=C(c1c(F)cccc1F)N1COCN(c2ccc([S+]([O-])C(F)(F)C(F)(F)C(F)(F)F)cc2F)C1=O (centres unmarked) [I-144, 3-(2,6-difluorobenzoyl)-5-[2-fluoro-4-(1,1,2,2,3,3,3-heptafluoro-1-propylsulfinyl)phenyl]tetrahydro-4H-1,3,5-oxadiazin-4-one]
[4]
  pest or weed control at 25 ppm: 95%

## C[S+]([O-])c1ccc(N2COCN(C(=O)c3c(F)cccc3Cl)C2=O)c(F)c1 (centres unmarked) [I-206]
[2]
  rate of dead pests (%): 100%
[3]
  rate of dead pests (%): 100%

## O=C(c1c(F)cccc1Cl)N1COCN(c2ccc(SC(F)F)cc2F)C1=O [I-218]
[1]
  rate of dead pests (%): 100%
[2]
  rate of dead pests (%): 100%
[3]
  rate of dead pests (%): 100%

## O=C(c1c(F)cccc1Cl)N1COCN(c2ccc(SC(F)(F)F)cc2F)C1=O [I-221]
[1]
  rate of dead pests (%): 100%
[2]
  rate of dead pests (%): 100%
[3]
  rate of dead pests (%): 100%

## O=C(c1c(Cl)cccc1Cl)N1COCN(c2ccc(SC(F)(F)F)cc2F)C1=O [I-398]
[1]
  rate of dead pests (%): 100%
[3]
  rate of dead pests (%): 100%

## O=C(c1c(F)cccc1F)N1CSCN(c2ccc(SC(F)(F)C(F)Cl)cc2F)C1=O (centres unmarked) [II-19]
[3]
  rate of dead pests (%): 100%

## O=C(c1c(F)cccc1F)N1CSCN(c2ccc([S+]([O-])C(F)(F)C(F)Cl)cc2F)C1=O (centres unmarked) [II-22]
[3]
  rate of dead pests (%): 100%

## CS(=O)(=O)N1CN(C(=O)c2c(F)cccc2F)C(=O)N(c2ccc(Cl)cc2)C1 [III-12, 1-(4-chlorophenyl)-3-(2,6-difluorobenzoyl)-5-methanesulfonyltetrahydro-1,3,5-triazin-2(1H)-one]
[1]
  pest or weed control at 100 ppm: 100%
[2]
  pest or weed control at 25 ppm: 100%

## COC(=O)N1CN(C(=O)c2c(F)cccc2F)C(=O)N(c2ccc(Cl)cc2)C1 [III-13]
[1]
  rate of dead pests (%): 100%
[2]
  rate of dead pests (%): 100%

## C#CCN1CN(C(=O)c2c(F)cccc2F)C(=O)N(c2ccc(Oc3ccc(C(F)(F)F)cc3Cl)cc2F)C1 [III-23]
[1]
  rate of dead pests (%): 100%
[3]
  rate of dead pests (%): 100%

## CS(=O)(=O)N1CN(C(=O)c2c(F)cccc2F)C(=O)N(c2ccc(Oc3ccc(C(F)(F)F)cc3Cl)cc2F)C1 [III-26]
[1]
  rate of dead pests (%): 100%
[3]
  rate of dead pests (%): 100%

## COC(=O)N1CN(C(=O)c2c(F)cccc2F)C(=O)N(c2ccc(Oc3ccc(C(F)(F)F)cc3Cl)cc2F)C1 [III-28]
[1]
  rate of dead pests (%): 100%
[3]
  rate of dead pests (%): 100%

## CN(C)C(=O)C(=O)N1CN(C(=O)c2c(F)cccc2F)C(=O)N(c2ccc(Oc3ccc(C(F)(F)F)cc3Cl)cc2F)C1 [III-43, 2-[3-[4-(2-chloro-4-trifluoromethylphenoxy)-2-fluorophenyl]-5-(2,6-difluorobenzoyl)hexahydro-4-oxo-1,3,5-triazin-1-yl]-N,N-dimethyl-2-oxoacetamide]
[1]
  pest or weed control at 100 ppm: 100%
[3]
  pest or weed control at 100 ppm: 100%

## O=C(NOCc1ccccc1)C(=O)N1CN(C(=O)c2c(F)cccc2F)C(=O)N(c2ccc(Oc3ccc(C(F)(F)F)cc3Cl)cc2F)C1 [III-50]
[1]
  rate of dead pests (%): 100%
[3]
  rate of dead pests (%): 100%

## O=C(c1c(F)cccc1F)N1CN(c2ccccc2)CN(c2cc(Cl)c(F)c(Cl)c2F)C1=O [III-54]
[1]
  rate of dead pests (%): 100%
[3]
  rate of dead pests (%): 100%

## O=C(OCc1ccccc1)N1CN(C(=O)c2c(F)cccc2F)C(=O)N(c2cc(Cl)c(F)c(Cl)c2F)C1 [III-55, 5-benzyloxycarbonyl-1-(3,5-dichloro-2,4-difluorophenyl)-3-(2,6-difluorobenzoyl)tetrahydro-1,3,5-triazin-2(1H)-one]
[1]
  pest or weed control at 100 ppm: 100%
[3]
  pest or weed control at 100 ppm: 100%

## C=CCN1CN(C(=O)c2c(F)cccc2F)C(=O)N(c2cc(Cl)c(F)c(Cl)c2F)C1 [III-56]
[1]
  rate of dead pests (%): 100%
[3]
  rate of dead pests (%): 100%

## C#CCN1CN(C(=O)c2c(F)cccc2F)C(=O)N(c2cc(Cl)c(F)c(Cl)c2F)C1 [III-57]
[1]
  rate of dead pests (%): 100%
[3]
  rate of dead pests (%): 100%

## O=C(c1c(F)cccc1F)N1CN(Cc2ccccc2)CN(c2cc(Cl)c(F)c(Cl)c2F)C1=O [III-60]
[1]
  rate of dead pests (%): 100%
[3]
  rate of dead pests (%): 100%

## COC(=O)N1CN(C(=O)c2c(F)cccc2F)C(=O)N(c2cc(Cl)c(F)c(Cl)c2F)C1 [III-61]
[2]
  rate of dead pests (%): 100%
[3]
  rate of dead pests (%): 100%

## COC(=O)SN1CN(C(=O)c2c(F)cccc2F)C(=O)N(c2cc(Cl)c(F)c(Cl)c2F)C1 [III-62]
[1]
  rate of dead pests (%): 100%
[3]
  rate of dead pests (%): 100%

## Cc1ccc(S(=O)(=O)N2CN(C(=O)c3c(F)cccc3F)C(=O)N(c3cc(Cl)c(F)c(Cl)c3F)C2)cc1 [III-63]
[1]
  rate of dead pests (%): 100%
[3]
  rate of dead pests (%): 100%

## O=C(OCc1ccccc1)N1CN(C(=O)c2c(F)cccc2F)C(=O)N(c2cc(Cl)c(OC(F)(F)C(F)C(F)(F)F)cc2Cl)C1 (centres unmarked) [III-70]
[1]
  rate of dead pests (%): 100%
[3]
  rate of dead pests (%): 100%

## O=C(c1c(F)cccc1F)N1CNCN(c2cc(Cl)c(OC(F)(F)C(F)C(F)(F)F)cc2Cl)C1=O (centres unmarked) [III-71]
[1]
  rate of dead pests (%): 100%
[3]
  rate of dead pests (%): 100%

## COC(=O)C(=O)N1CN(C(=O)c2c(F)cccc2F)C(=O)N(c2cc(Cl)c(OC(F)(F)C(F)C(F)(F)F)cc2Cl)C1 (centres unmarked) [III-72]
[1]
  rate of dead pests (%): 100%
[3]
  rate of dead pests (%): 100%

## O=C(OCc1ccccc1)N1CN(C(=O)c2c(F)cccc2F)C(=O)N(c2ccc(SC(F)(F)C(F)Cl)cc2F)C1 (centres unmarked) [III-77]
[1]
  rate of dead pests (%): 100%
[3]
  rate of dead pests (%): 100%

## COC(=O)C(=O)N1CN(C(=O)c2c(F)cccc2F)C(=O)N(c2ccc(SC(F)(F)C(F)Cl)cc2F)C1 (centres unmarked) [III-79]
[1]
  rate of dead pests (%): 100%
[2]
  rate of dead pests (%): 100%
[3]
  rate of dead pests (%): 100%

## CN1CN(C(=O)c2c(F)cccc2F)C(=O)N(c2ccc(S(=O)(=O)C(F)F)cc2F)C1 [III-156, 1-(2,6-difluorobenzoyl)-3-[4-(difluoromethylsulfonyl)-2-fluorophenyl]-5-methyltetrahydro-1,3,5-triazin-2 (1H)-one]
[1]
  pest or weed control at 100 ppm: 100%
[3]
  pest or weed control at 100 ppm: 100%

## O=C(c1c(F)cccc1F)N1CN=CN(c2ccc(Cl)cc2)C1=O [V-1]
[1]
  rate of dead pests (%): 100%
[2]
  rate of dead pests (%): 100%

## O=C(c1c(F)cccc1F)N1CN=CN(c2ccc(Oc3ccc(C(F)(F)F)cc3Cl)cc2F)C1=O [V-3]
[1]
  rate of dead pests (%): 100%
[3]
  rate of dead pests (%): 100%

From US20050159599A1, “Cyclic compound, process for producing the same, and pest control agent” (priority 2002, published 2005)
